In patent publication US4499303A, “Antihyperlipidemic N-benzoylsulfamates, N-benzylsulfamates and benzylsulfonamides” (Research Corporation, priority 1983, dated 1985):
Entries after “also recorded” stand apart in the source; their conditions may differ. Read-outs that look alike come from different tables or passages of the source.

Columns and labels:
Format in all cases: in vivo
[1] = test system: Serum Cholesterol; experiment: Antihyperlipidemic effect in CF1 male mice: serum cholesterol; conditions: for response vs control in vivo at 20 mg/kg: Mus musculus, ip; for antihypercholesteremic activity (in words): mice, compared with others of Table I
[2] = test system: Serum Triglycerides; experiment: Antihyperlipidemic effect in CF1 male mice: serum triglycerides; conditions: for response vs control in vivo at 20 mg/kg: Mus musculus, ip, 384 h; for response vs control in vivo at 20 mg/kg / Serum Triglycerides, Day 16: 20 mg/kg/day I.P., CF1 male mice, N = 6, Day 16; for antihypertriglyceridemic activity (in words): mice, compared with others of Table I
Method: Serum triglycerides were assayed using the commercially available Bio-Dynamics/bmc Triglyceride Kit on blood collected on the 16th day. By comparison to standards, the mg% of cholesterol and mg/dl of triglycerides were calculated. Treated values are expressed as percent of control.

[3] = test system: serum cholesterol; experiment: Hypolipidemic effect in rodents at 60 mg/kg/day: serum cholesterol
Description: Of the series of compounds tested thus far, N-(p-chlorobenzoyl)-sulfamate and (o-chlorobenzyl)-sulfonamide appear to be of the most interest. […]

[4] = test system: triglyceride levels; experiment: Hypolipidemic effect in rodents at 60 mg/kg/day: triglycerides
Method: Of the series of compounds tested thus far, N-(p-chlorobenzoyl)-sulfamate and (o-chlorobenzyl)-sulfonamide appear to be of the most interest. N-(p-chlorobenzoyl)-sulfamic acid sodium salt at 20 mg/kg/day, I.P. lowered serum cholesterol levels 48% and serum triglyceride levels 45% after 16 days dosing.

[5] = test system: normal and hyperlipidemic mice; experiment: Hypolipidemic effect in normal and hyperlipidemic mice, oral and intraperitoneal; conditions: orally and intraperitoneally
[6] = 216 h, 20 mg/kg/day I.P., CF1 male mice, N = 6, Day 9, read-out: Serum Cholesterol, Day 9
[7] = 384 h, 20 mg/kg/day I.P., CF1 male mice, N = 6, Day 16, read-out: Serum Cholesterol, Day 16
[8] = 20 mg/kg/day, I.P., after 16 days dosing, lowering

Compound	response vs control in vivo at 20 mg/kg [1, 6] [%]	response vs control in vivo at 20 mg/kg [1, 7] [%]	response vs control in vivo at 20 mg/kg [2] [%]	antihypertriglyceridemic activity (in words) [2]	also measured
CCOC(=O)C(C)(C)Oc1ccc(Cl)cc1 [Clofibrate, reference compound]	98 ± 7	97 ± 9	95 ± 7		
COc1ccc(C(=O)NS(=O)(=O)O)cc1 [Compound 1]	63 ± 6	60 ± 7	65 ± 8	less active in lowering triglyceride levels	antihypercholesteremic activity (in words) [1]: more active than saccharin in lowering serum cholesterol levels
O=C(NS(=O)(=O)[O-])c1ccc(Cl)cc1.[Na+] [Compound 2, N-(p-chlorobenzoyl)-sulfamic acid sodium salt]	57 ± 5		55 ± 7	less active in lowering triglyceride levels	lowered serum cholesterol levels [1, 8]: 48%; response vs control in vivo at 20 mg/kg ([1]; 384 h, read-out: Serum Cholesterol, Day 16): 52 ± 6%; antihypercholesteremic activity (in words) [1]: more active than saccharin in lowering serum cholesterol levels; Serum Triglycerides, Day 16 ([2]; listed as p--Cl, sodium salt): 55±7 % Control; lowered serum triglyceride levels [2, 8]: 45%
O=C(NS(=O)(=O)O)c1cccc(Cl)c1 [Compound 3]	72 ± 5	64 ± 6	97 ± 7	less active in lowering triglyceride levels	antihypercholesteremic activity (in words) [1]: more active than saccharin in lowering serum cholesterol levels
O=C(NS(=O)(=O)O)c1ccccc1Cl [Compound 4]	78 ± 6	51 ± 5	86 ± 8	less active in lowering triglyceride levels	antihypercholesteremic activity (in words) [1]: more active than saccharin in lowering serum cholesterol levels
COc1cccc(C(=O)NS(=O)(=O)O)c1 [Compound 5]	86 ± 7	72 ± 5	80 ± 7		
O=C(NS(=O)(=O)O)c1ccccc1 [Compound 7]	74 ± 6	57 ± 5	70 ± 6	less active in lowering triglyceride levels	antihypercholesteremic activity (in words) [1]: more active than saccharin in lowering serum cholesterol levels; antihypercholesteremic activity (in words) ([1]; listed as unsubstituted prototype): quite active
O=C(NS(=O)(=O)O)c1ccc(Br)cc1 [Compound 8]	75 ± 4	73 ± 7	88 ± 3		
Cc1ccc(C(=O)NS(=O)(=O)O)cc1 [Compound 9]	70 ± 3	63 ± 3	82 ± 4		
CC(=O)c1ccc(C(=O)NS(=O)(=O)O)cc1 [Compound 10]	95 ± 3	72 ± 4	69 ± 6		
CC(C)c1ccc(C(=O)NS(=O)(=O)O)cc1 [Compound 11]	90 ± 6	77 ± 6	49 ± 8		Serum Triglycerides, Day 16 ([2]; listed as p-isopropyl derivative): 49±8 % Control
COc1ccc(CNS(=O)(=O)O)cc1 [Compound 12]	88 ± 4	87 ± 2	91 ± 9		
O=S(=O)(O)NCc1ccccc1 [Compound 13]	94 ± 7	88 ± 2	97 ± 8		
O=S(=O)(O)NCc1ccccc1Cl [Compound 14]	84 ± 8	78 ± 2	75 ± 2	increased antihyertriglyceridemic activity compared to N-benzoylsulfamate 4	
O=S(=O)(O)NCc1ccc(Cl)cc1 [Compound 15]	94 ± 2	93 ± 4	79 ± 7		
NS(=O)(=O)Cc1ccccc1Cl [Compound 16, (o-Chlorobenzyl)sulfonamide]	99 ± 8	73 ± 6	52 ± 6	the most active antihypertriglyceridemics in the series	hypolipidemic agent in rodents (in words) [3]: potent hypolipidemic agent in rodents; reducing serum cholesterol levels ([3]; 60/mg/kg/day): 71%; reducing triglyceride levels [4]: 49%; hypolipidemic activity (in words) [5]: effective both in normal and hyperlipidemic mice and is active both orally an intraperitonally
COc1ccccc1CS(N)(=O)=O [Compound 17]	69 ± 4	68 ± 7	58 ± 6		antihypercholesteremic activity (in words) [1]: the most active antihypercholesteremic, being equal in activity to saccharin
COc1cccc(CS(N)(=O)=O)c1 [Compound 18]	84 ± 6	79 ± 7	42 ± 4	more active than saccharin; also recorded: the most active antihypertriglyceridemics in the series	Serum Triglycerides, Day 16 [2]: 42 % Control
COc1ccc(CS(N)(=O)=O)cc1 [Compound 19]	74 ± 8	70 ± 5	76 ± 7		
NS(=O)(=O)Cc1ccccc1 [Compound 20]	95 ± 8	75 ± 5	42 ± 3	more active than saccharin; also recorded: the most active antihypertriglyceridemics in the series	Serum Triglycerides, Day 16 [2]: 42 % Control
NS(=O)(=O)Cc1cccc(Cl)c1 [Compound 21]	92 ± 7	77 ± 5	71 ± 5		
NS(=O)(=O)Cc1ccc(Cl)cc1 [Compound 22]	94 ± 7	78 ± 8	48 ± 4	equally active with saccharin; also recorded: the most active antihypertriglyceridemics in the series	
O=C1NS(=O)(=O)c2ccccc21 [Saccharin, reference compound]	77 ± 6	68 ± 7	48 ± 6		
